The text below walks through data of publication PMC8270338, “Exploring New Scaffolds for the Dual Inhibition of HIV-1 RT Polymerase and Ribonuclease Associated Functions” (Molecules, 2021).

In data set [1] the target is T1, HIV-1 RT-associated RNase H (Human immunodeficiency virus type 1 group M subtype B, UniProt P04585).
T1 construct: The full length HIV-1 RT group M subtype B was expressed and purified; made in house
Briefly: HIV-1 RT-associated DNA polymerase-independent RNase H activity determination. Format: biochemical, HIV-1 group M subtype B. Particulars: full length HIV-1 wt RT, no pre-incubation with the enzyme, 1 h at 37 °C; concentration reducing RNase H activity by 50%. On the procedure:
The full length HIV-1 RT group M subtype B was expressed and purified as previously described. The HIV RT-associated RNase H activity was measured as described. […] Reactions were stopped by the addition of EDTA and products were measured with a Perkin–Elmer Victor 3 multilabel counter plate reader (Waltham, MA, USA) at excitation–emission wavelength of 490/528 nm (Table 1).

Data set [2] deals with T2, HIV-1 RT-associated RNA-dependent DNA-polymerase (RDDP) (Human immunodeficiency virus type 1 group M subtype B, UniProt P04585).
T2 construct: The full length HIV-1 RT group M subtype B was expressed and purified; made in house
Description: biochemical. The arrangement: species or system HIV-1 group M subtype B. On the procedure:
The HIV-1 RT-associated RNA-Dependent DP activity was measured as previously described. […] The enzymatic reaction was stopped by the addition of EDTA.

The structures appear in SMILES notation. Structures can show the parent of a compound that is named as a salt. Where two headings read alike, the source gives them in different places.

One may read the IC50 as the concentration that inhibits the measured activity by half. Turning to `COc1ccc(-c2ccccc2Br)cc1C=NNc1nc(-c2ccc([N+](=O)[O-])cc2)cs1` [EMAC2067, 2-{[5-(2-bromophenyl)-2-methoxyphenyl]methylidene}hydrazin-1-yl]-4-(4-nitrophenyl)-1,3-thiazole bromide], the 50% inhibitory concentration (IC50) in data set [1] was 27 ± 5 µM; in data set [2] (read-out: RDDP IC50), 30 ± 3 µM.
`COc1ccc(-c2ccc(F)cc2)cc1C=NNc1nc(-c2ccc(Cl)c(Cl)c2)cs1` [EMAC2069, 4-(3,4-dichlorophenyl)-2-[-2-{[5-(4-fluorophenyl)-2-methoxyphenyl]methylidene}hydrazin-1-yl]-1,3-thiazole bromide]: the IC50 in data set [1] worked out at 52.5 ± 10.5 µM; in data set [2] (read-out: RDDP IC50) it was 66 ± 2 µM.
For the compound `COc1ccc(-c2ccccc2C(N)=O)cc1C=NNc1nc(-c2ccc(Cl)cc2)cs1` [EMAC2062, 2-{3-[{2-[4-(4-chlorophenyl)-1,3-thiazol-2-yl]hydrazin-1-ylidene}methyl]-4-methoxyphenyl}benzamide bromide], the results for the half-maximal inhibitory concentration (IC50) in data set [1] and in data set [2] (read-out: RDDP IC50) were 8 ± 2 µM and 17 ± 2 µM, respectively.
The like results for `COc1ccc(-c2csc(N/N=C/c3cc(-c4ccccc4C(N)=O)ccc3OC)n2)cc1` [EMAC2060, 2-{4-methoxy-3-[(1E)-{2-[4-(4-methoxyphenyl)-1,3-thiazol-2-yl]hydrazin-1-ylidene}methyl]phenyl}benzamide bromide] were, in that order, 21.5 ± 3.5 µM and 27 ± 1 µM.
The corresponding values for `COc1ccc(-c2csc(NN=Cc3cc(-c4ccccc4Br)ccc3OC)n2)cc1` [EMAC2064, 2-{[5-(2-bromophenyl)-2-methoxyphenyl]methylidene}hydrazin-1-yl]-4-(4-methoxyphenyl)-1,3-thiazole bromide] are 13 ± 4 µM and 32.5 ± 2.5 µM.
The corresponding values for `COc1ccc(-c2csc(NN=Cc3cc(-c4ccccc4)ccc3OC)n2)cc1` [EMAC2056, 2-[2-[(2-Methoxy-5-Phenylphenyl)methylidene]hydrazin-1-yl]-4-(4-Methoxyphenyl)-1,3-Thiazole Bromide] are 19.5 ± 5.5 µM and 36 ± 5 µM.
In general, melting point refers to the temperature of the solid-liquid transition. In the case of `COc1ccc(-c2ccccc2C(N)=O)cc1/C=N/Nc1nc(-c2ccc([N+](=O)[O-])cc2)cs1` (as salt: bromide) [EMAC2063, 2-{3-[(2-{4-[4-nitrophenyl]-1,3-thiazol-2-yl}hydrazin-1-ylidene)methyl]-4-methoxyphenyl}benzamide bromide], the melting point is 208 °C (dec.).
As for `COc1ccc(-c2ccc(F)cc2)cc1C=NNc1nc(-c2ccc([N+](=O)[O-])cc2)cs1` [EMAC2071, [(4-{2-[2-{[5-(4-fluorophenyl)-2-methoxyphenyl]methylidene}hydrazin-1-yl]-1,3-thiazol-4-yl}phenyl)nitroso]oxidanol bromide], the results for the IC50 in data set [1] and in data set [2] (read-out: RDDP IC50) were 19 ± 1 µM and 47.5 ± 11.5 µM, respectively.
The like results for `COc1ccc(-c2ccccc2)cc1C=NNc1nc(-c2ccc([N+](=O)[O-])cc2)cs1` [EMAC2059, 4-(4-nitrophenyl)-2-[2-[(2-methoxy-5-phenylphenyl)methylidene]hydrazin-1-yl]-1,3-thiazole bromide] were, in that order, 12.8 ± 4.3 µM and 39.5 ± 11.5 µM.
As to `COc1ccc(-c2ccccc2)cc1C=NNc1nc(-c2ccc(Cl)c(Cl)c2)cs1` [EMAC2057, 4-(3,4-dichlorophenyl)-2-[2-[(2-methoxy-5-phenylphenyl)methylidene]hydrazin-1-yl]-1,3-thiazole bromide], the half-inhibitory concentration (IC50) in data set [1] came to 57 ± 5 µM; in data set [2] (read-out: RDDP IC50) it was 88 ± 12 µM.
For `COc1ccc(-c2ccccc2C(N)=O)cc1/C=N/Nc1nc(-c2ccc([N+](=O)[O-])cc2)cs1` [EMAC2063, 2-{3-[(2-{4-[4-nitrophenyl]-1,3-thiazol-2-yl}hydrazin-1-ylidene)methyl]-4-methoxyphenyl}benzamide bromide], the half-maximal inhibitory concentration (IC50) in data set [1] was 4.5 ± 0.5 µM; in data set [2], 8 µM.
As to `COc1ccc(-c2ccc(F)cc2)cc1C=NNc1nc(-c2ccc(Cl)cc2)cs1` [EMAC2070, 4-(4-chlorophenyl)-2-[-2-{[5-(4-fluorophenyl)-2-methoxyphenyl]methylidene}hydrazin-1-yl]-1,3-thiazole bromide], the results for the 50% inhibitory concentration (IC50) in data set [1] and in data set [2] (read-out: RDDP IC50) were 55.5 ± 1.5 µM and 59 ± 6 µM, respectively.
The like results for `COc1ccc(-c2csc(NN=Cc3cc(-c4ccc(F)cc4)ccc3OC)n2)cc1` [EMAC2068, 2-[2-{[5-(4-fluorophenyl)-2-methoxyphenyl]methylidene}hydrazin-1-yl]-4-(4-methoxyphenyl)-1,3-thiazole bromide] were, in that order, 29.5 ± 3.5 µM and 61.5 ± 8.5 µM.
The corresponding values for `COc1ccc(-c2ccccc2Br)cc1C=NNc1nc(-c2ccc(Cl)c(Cl)c2)cs1` [EMAC2065, 2-{[5-(2-bromophenyl)-2-methoxyphenyl]methylidene}hydrazin-1-yl]-4-(3,4-dicholophenyl)-1,3-thiazole bromide] are 15 ± 1 µM and 53.5 ± 15.5 µM.
As to `COc1ccc(-c2ccccc2C(N)=O)cc1C=NNc1nc(-c2ccc(Cl)c(Cl)c2)cs1` [EMAC2061, 2-{3-[{2-[4-(3,4-dichlorophenyl)-1,3-thiazol-2-yl]hydrazin-1-ylidene}methyl]-4-methoxyphenyl}benzamide bromide], the half-inhibitory concentration (IC50) is 6.5 ± 2.5 µM in data set [1] and 19.5 ± 0.5 µM in data set [2] (read-out: RDDP IC50).
In the case of `COc1ccc(-c2ccccc2)cc1C=NNc1nc(-c2cccc(Cl)c2)cs1` [EMAC2058, 4-(3-chlorophenyl)-2-[2-[(2-methoxy-5-phenylphenyl)methylidene]hydrazin-1-yl]-1,3-thiazole bromide], the half-inhibitory concentration (IC50) in data set [1] came out at 46 ± 1 µM; in data set [2] (read-out: RDDP IC50) it was 56.5 ± 9.5 µM.
The corresponding values for `COc1ccc(-c2ccccc2Br)cc1C=NNc1nc(-c2ccc(Cl)cc2)cs1` [EMAC2066, 2-{[5-(2-bromophenyl)-2-methoxyphenyl]methylidene}hydrazin-1-yl]-4-(4-cholophenyl)-1,3-thiazole bromide] are 47 ± 3 µM and 71.5 ± 6.5 µM.
